# Laboratory results reported in ChEMBL document CHEMBL1221278, “Design, synthesis, and cholesterol-lowering efficacy for prodrugs of berberrubine” (Bioorg Med Chem, 2010).
# Calls of active or inactive are those of the source. The rule behind the calls is not given here.
# Tests used:
# [1] = Lipophilicity, log P of the compound; type: physicochemical; conditions: octanol/water
# HepG2 = assay: Upregulation of LDLR mRNA expression in human HepG2 cells by RT-PCR; type: functional, cell-based
# Rattus norvegicus [2] = assay: Hypolipidemic activity in high fat high cholesterol diet fed Sprague-Dawley rat hyperlipidemic model assessed as reduction in LDL cholesterol 100 mg/kg, po qd for 28 days; design: scale not given: the % may be the effect or the level left
# Rattus norvegicus [3] = assay: Toxicity in high fat high cholesterol diet fed Sprague-Dawley rat hyperlipidemic model assessed as reduction in food intake at 100 mg/kg, po qd for 28 days; conditions: in vivo, 672 h
# Rattus norvegicus [4] = assay: Toxicity in high fat high cholesterol diet fed Sprague-Dawley rat hyperlipidemic model assessed as weight loss at 100 mg/kg, po qd for 28 days; conditions: in vivo, 672 h
# Rattus norvegicus [5] = assay: Toxicity in high fat high cholesterol diet fed Sprague-Dawley rat hyperlipidemic model assessed as liver of kidney function abnormalities at 100 mg/kg, po qd for 28 days; conditions: in vivo, 672 h
# Rattus norvegicus [6] = assay: Hypolipidemic activity in high fat high cholesterol diet fed Sprague-Dawley rat hyperlipidemic model assessed as reduction in total cholesterol 100 mg/kg, po qd for 28 days; design: scale not given: the % may be the effect or the level left
Structure (SMILES),logP [1],Activity (HepG2),also measured
COc1ccc2cc3[n+](cc2c1OC(=O)C(C)(C)C)CCc1cc2c(cc1-3)OCO2,-0.25,inactive,
CCCCCCCCCCCCCCCC(=O)Oc1c(OC)ccc2cc3[n+](cc12)CCc1cc2c(cc1-3)OCO2.[Cl-],5.91,inactive,Activity (Rattus norvegicus [2]): 45.5%; Activity (Rattus norvegicus [3]): Non-toxic; Activity (Rattus norvegicus [4]): Non-toxic; Activity (Rattus norvegicus [5]): Non-toxic; Activity (Rattus norvegicus [6]): 35.8%
CCCCCCC(=O)Oc1c(OC)ccc2cc3[n+](cc12)CCc1cc2c(cc1-3)OCO2,1.16,inactive,
CCCCC(=O)Oc1c(OC)ccc2cc3[n+](cc12)CCc1cc2c(cc1-3)OCO2,0.1,inactive,
CCCCCCCCCC(=O)Oc1c(OC)ccc2cc3[n+](cc12)CCc1cc2c(cc1-3)OCO2,2.74,inactive,
CCCCCCCC(=O)Oc1c(OC)ccc2cc3[n+](cc12)CCc1cc2c(cc1-3)OCO2,1.69,inactive,
COc1ccc2cc3[n+](cc2c1O)CCc1cc2c(cc1-3)OCO2 [BERBERRUBINE CHLORIDE],-1.06,,
CCCCCCCCCCCCCCCCCC(=O)Oc1c(OC)ccc2cc3[n+](cc12)CCc1cc2c(cc1-3)OCO2,6.98,inactive,
CCCCCCCCCCCC(=O)Oc1c(OC)ccc2cc3[n+](cc12)CCc1cc2c(cc1-3)OCO2,3.8,inactive,

# Now from value to molecule, other results behind:
logP [1],Structure (SMILES),Activity (HepG2),also measured
0.58,COc1ccc2cc3[n+](cc2c1OC(=O)c1ccccc1)CCc1cc2c(cc1-3)OCO2,inactive,
-0.43,CCCC(=O)Oc1c(OC)ccc2cc3[n+](cc12)CCc1cc2c(cc1-3)OCO2,inactive,
1.03,COc1ccc2cc3[n+](cc2c1OC(=O)/C=C/c1ccccc1)CCc1cc2c(cc1-3)OCO2,inactive,
-0.92,COc1ccc2cc3[n+](cc2c1OC)CCc1cc2c(cc1-3)OCO2.[Cl-] [BERBERINE CHLORIDE],,Activity (Rattus norvegicus [2]): 38%; Activity (Rattus norvegicus [6]): 27.4%
0.97,COc1ccc2cc3[n+](cc2c1OCOC(=O)c1ccccc1)CCc1cc2c(cc1-3)OCO2,inactive,
-1.18,CCOC(=O)Oc1c(OC)ccc2cc3[n+](cc12)CCc1cc2c(cc1-3)OCO2,inactive,
-0.06,COc1ccc2cc3[n+](cc2c1OCOC(=O)C(C)(C)C)CCc1cc2c(cc1-3)OCO2,inactive,
